This is an account of results in patent US5476944A, “Derivatives of cyclic phenolic thioethers” (G. D. Searle & Co., priority 1994, dated 1995).

In one assay the target is T1, COX-I (Homo sapiens, UniProt P23219).
T1 construct: made in house; host or cells: SF9 insect cells, recombinant baculovirus (pVL1393); coding fragment from Cayman Chemical
Kind of assay: Human Enzyme Assay, recombinant COX-I (PGE2 ELISA). Format: biochemical. The procedure:
(§1) The compounds of the invention are evaluated with respect to COX-I and COX-II activity in vitro using an enzyme based assay according to the following assay procedure.
(§2) (a) Preparation of Recombinant COX Baculoviruses
(§3) A 2.0 kb fragment containing the coding region for either human or murine COX-I (Caymen Chemical, Ann Arbor, Mich.), or human or murine COX-II (Caymen Chemical, Ann Arbor, Mich.), was cloned into a BamH1 site of the baculovirus transfer vector pVL1393 (Invitrogen, Palo Alto, Calif.) to generate a baculovirus transfer vector. Recombinant baculoviruses were isolated by transfecting 4 μg of baculovirus transfer vector DNA into SF9 cells (2×10e8) (Invitrogen, Palo Alto, Calif.) along with 200 ng of linearized bacium by the phosphate method. See M. D. Summers et al., "A Manual of Methods for Baculovirus Vectors and Insect Cell Culture Procedure," TEXAS AGRICULTURE EXPERIMENTAL STATION BULLETIN, No. 1555 (1987), which is incorporated herein by reference. Recombinant viruses were purified by three rounds of plaque purification, and high titer (10e7-10e8 pfu/ml) stocks of virus were prepared. For large scale production, SF9 insect cells (Invitrogen, Palo Alto, Calif.) were infected in 10 liter fermentors (0.5×10^6 /ml) with the recombinant baculovirus stock, such that the multiplicity of infection was 0.1. After 72 hours, the cells were centrifuged and the cell pellet was homogenized in Tris/Sucrose (50 mM: 25%, pH 8.0) containing 1% CHAPS. The homogenate was centrifuged at 10,000×G for 30 minutes, and the resultant supernatant was stored at -80° C. before being assayed for COX activity.
(§4) b. Assay for COX-I and COX-II activity:
(§5) COX activity was assayed as PGE2 formed/μg protein/time using an ELISA (Caymen Chemical, Ann Arbor, Mich.) to detect the prostaglandin E2 released. CHAPS-solubilized insect cell membranes containing the appropriate COX enzyme were incubated in a potassium phosphate buffer (50 mM, pH 8.0) containing phenol (0.5 mM), and heme (1 μM) with the addition of arachidonic acid (10 μM). Compounds of the present invention were pre-incubated with the enzyme for 10-20 minutes prior to the addition of the COX-I and COX-II enzyme substrate arachidonic acid (10 μM). Any reaction between the arachidonic acid and the enzyme was stopped after ten minutes at 37° C./room temperature by transferring 40 μl of reaction mix into […] ELISA buffer and 25 μM indomethacin. The PGE2 formed was measured by standard ELISA technology (Cayman Chemical, Ann Arbor, Mich.).
(§6) The results for this assay, as well as for the next assay (COX-II Cell Fibroblast Assay) are expressed in terms of COX-I or II activity as an IC50 value (50% inhibitory concentration), as defined as the amount of prostaglandin E2 (PGE2) formed per protein per time in response to the enzyme substrate arachidonic acid.
A general note: In an ELISA, binding on a coated surface is turned into a signal by an enzyme label.

The target in a further assay is T2, cellular COX-II (Homo sapiens, UniProt P35354).
T2 construct: stimulated human fetal dermal fibroblasts (HFDF, derived from primary cell cultures); endogenous in cells; host or cells: human fetal dermal fibroblasts (HFDF), primary, stimulated with IL-1 beta
T2 sequence (P35354 18-604): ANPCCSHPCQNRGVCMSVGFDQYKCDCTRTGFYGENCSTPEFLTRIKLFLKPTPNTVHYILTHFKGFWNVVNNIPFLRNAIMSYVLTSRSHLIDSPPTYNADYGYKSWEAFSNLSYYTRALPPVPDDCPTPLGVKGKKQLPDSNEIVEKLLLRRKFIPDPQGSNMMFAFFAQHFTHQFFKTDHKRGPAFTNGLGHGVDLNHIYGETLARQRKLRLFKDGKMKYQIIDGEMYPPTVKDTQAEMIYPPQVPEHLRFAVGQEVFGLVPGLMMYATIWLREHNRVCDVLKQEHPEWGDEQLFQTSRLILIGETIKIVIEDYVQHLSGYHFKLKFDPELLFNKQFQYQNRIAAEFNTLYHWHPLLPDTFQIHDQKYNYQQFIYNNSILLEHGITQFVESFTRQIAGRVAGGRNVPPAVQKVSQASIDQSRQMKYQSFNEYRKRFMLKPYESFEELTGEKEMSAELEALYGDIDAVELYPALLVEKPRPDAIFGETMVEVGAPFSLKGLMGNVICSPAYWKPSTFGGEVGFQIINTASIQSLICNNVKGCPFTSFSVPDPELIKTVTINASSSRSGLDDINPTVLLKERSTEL
As to the kind of experiment: Cellular COX-II Assay (Cell Fibroblast Assay), IL-1 stimulated human fetal dermal fibroblasts, PGE2. The class given is cell-based. The note with it: IL-1 beta stimulated human fetal dermal fibroblasts. The procedure:
The compounds of the invention are evaluated with respect to the inhibition of cellular COX-II in vitro according to the following Cellular COX-II Assay (Cell Fibroblast Assay).
Cellular COX-II Assay (Cell Fibroblast Assay)
Inhibition of cellular COX-II by test compounds is determined using stimulated human fetal dermal fibroblasts (HFDF, derived from primary cell cultures). Fibroblasts are cultured in microtiter wells at 1.5×10^4 cells/well in Dulbecco's Modified Eagle's Media (DMEM)(Gibco/BRL, Gaithersburg, Md. Sigma Chemical Co., St. Louis, Mo.) containing 4500 mg glucose/L, 100 units penicillin G/ml and 0.1 mg streptomycin/ml, 4 mM L-glutamine, 25 mM Hepes and 10% Fetal Bovine Serum (Gibco/BRL, Gaithersburg, Md. Bioproducts For Science, Inc., Indianapolis,Ind.). Following a 3-day incubation at 37° C., the culture media is removed by aspiration using low vacuum, and the cells are stimulated overnight with medium containing human recombinant IL-1 (interleukin-1) beta (1 ng/ml)(Cistron, Pine Brook, N.J.). The next day, the fibroblasts are washed with Phosphate Buffered Saline, and 185 μl of DMEM is added to each well. The cells are placed in a 37° C. incubator for 15 minutes. Compounds are then added to the cells using seven half-log dilutions in duplicate determinations. Cells are incubated with test compounds at 37° C. for 30 minutes. The COX-II substrate arachidonic acid (20 μM; Nu-Chek-Prep Inc., Elysian, Minn.) is then added to the cell cultures and the plates are incubated for 10 minutes at 37° C. Supernatants are collected and Prostaglandin E2 (PGE2) production is measured by an enzyme-linked immunosorbent assay (ELISA; antibodies produced by Cayman Chemical Company, Ann Arbor, Mich.). […] PG,60
The following is a description of how the activities of the compounds of the present invention may be determined.
A run of this assay consists of one (or more) plates, each containing, along with the standard (in row A), (1) two wells of unstimulated material (in col. 12), (2) five wells of stimulated material (in col. 12), (3) seven wells (one per concentration) for indomethacin (in col. 11), and (4) two wells at each of seven concentrations for five test compounds, one of which is a repeat of indomethacin. The response (ng/ml Eicosanoid) is estimated from the Standard curve and is highest at low concentrations and decreases as the concentration increases. If the response is plotted on the y-axis and the log of the concentration is plotted on the x-axis, the dose-response pattern for these assays is typically a symmetrical, sigmoidal shaped curve. If a full range of concentrations is used, the complete sigmoidal curve may be seen, starting with an upper asymptote, falling at some degree of steepness, and then leveling off at a lower asymptote. The IC50 is defined as the concentration corresponding to a response midway between the upper and lower plateaus. A theoretic "dose-response" model is used to estimate the IC50.
The procedure described below was used to define the minimum and maximum responses for the compounds on a plate.
The procedure uses information for indomethacin and the rest of the plate in defining the minimum and maximum response. The justification for doing this is as follows. Enough runs have been done with indomethacin to determine and use a range of concentrations such that the response to the lowest concentrations is on the upper plateau of the sigmoidal curve and the response to the highest concentrations is on the lower plateau of the sigmoidal curve. For the other compounds, if a response is measured which is less than the response for the unstimulated wells, then this response may be considered to be another estimate of a minimal response. Likewise, if a response is measured which is greater than the response for the stimulated wells, then this response may be considered to be another estimate of a maximal response. Based on this reasoning, the minimum is estimated as follows: […]

The target of the next assay is T3, COX-II (Homo sapiens, UniProt P35354).
T3 construct: made in house; host or cells: SF9 insect cells, recombinant baculovirus (pVL1393); coding fragment from Cayman Chemical
T3 sequence (P35354 18-604): T2 sequence (P35354 18-604)
Kind of assay: Human Enzyme Assay, recombinant COX-II (PGE2 ELISA). Format: biochemical. The procedure:
as §1, §2, §3, §4, §5, §6

T1 sequence (P23219 24-599): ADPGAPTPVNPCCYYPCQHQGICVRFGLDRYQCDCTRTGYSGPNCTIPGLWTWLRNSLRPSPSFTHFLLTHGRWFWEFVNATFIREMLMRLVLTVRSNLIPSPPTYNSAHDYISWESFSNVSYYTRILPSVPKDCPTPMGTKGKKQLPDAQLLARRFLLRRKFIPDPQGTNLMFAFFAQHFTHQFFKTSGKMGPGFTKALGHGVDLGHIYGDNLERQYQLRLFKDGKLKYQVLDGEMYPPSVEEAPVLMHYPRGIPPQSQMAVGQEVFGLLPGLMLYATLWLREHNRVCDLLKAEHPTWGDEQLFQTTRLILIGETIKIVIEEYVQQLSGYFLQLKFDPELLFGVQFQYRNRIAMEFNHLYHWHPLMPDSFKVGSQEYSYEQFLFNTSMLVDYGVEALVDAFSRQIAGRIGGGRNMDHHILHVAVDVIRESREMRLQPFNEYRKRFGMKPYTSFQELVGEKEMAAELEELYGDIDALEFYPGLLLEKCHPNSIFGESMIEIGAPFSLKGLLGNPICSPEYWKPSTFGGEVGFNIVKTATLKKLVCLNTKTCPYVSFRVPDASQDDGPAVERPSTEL

By IC50 is commonly meant the concentration that inhibits the measured activity by half. For `CC(C)(C)c1ccc(S[C@H]2CCC[C@H]2OCC(=O)O)c(C(C)(C)C)c1` (racemic) [Example 80, (±)cis-2-[[2-[[2,4-bis(1,1-dimethylethyl)phenyl]thio]cyclopentyl]oxy]acetic acid], the concentration for half-maximal inhibition (IC50) was found to be 28.5 µM on COX-I, 0.602 µM against cellular COX-II and 0.937 µM on COX-II.

On to `CC(C)(C)c1ccc(S[C@@H]2CCC[C@H]2OCC(=O)O)c(C(C)(C)C)c1` (racemic) [Example 81, (±)trans-2-[[2-[[2,4-bis(1,1-dimethylethyl)phenyl]-thio]cyclopentyl]oxy]acetic acid], for which the results for the half-inhibitory concentration (IC50) at COX-I, against cellular COX-II and on COX-II were 94.6 µM, 0.438 µM and 1.43 µM, respectively.

Regarding `CC(C)(C)c1cc(S[C@@H]2CCC[C@H]2OCC(=O)O)cc(C(C)(C)C)c1` (relative stereo) [Example 76, (±)trans-2-[[2-[[3,5-bis(1,1-dimethylethyl)phenyl]thio]cyclopentyl]oxy]acetic acid], the IC50 was over 100 µM at COX-I, 5.59 µM against cellular COX-II and over 100 µM at COX-II.

Take `CC(C)(C)c1cc(S[C@H]2CCC[C@H]2OCC(=O)O)cc(C(C)(C)C)c1` (relative stereo) [Example 77]: the values for the 50% inhibitory concentration (IC50) at COX-I, against cellular COX-II and on COX-II were over 100 µM, 0.17 µM and 5.16 µM, respectively.

Take `CC(C)(C)c1ccc(O[C@@H]2CCC[C@H]2OCC(=O)O)c(C(C)(C)C)c1` (relative stereo) [Example 101, trans-2-[[2-[2,4-bis(1,1-dimethylethyl)phenoxy]cyclopentyl]oxy]acetic acid]: the IC50 is over 100 µM on COX-I, 0.84 µM on cellular COX-II and over 100 µM at COX-II.

Consider `CC(C)(C)c1cc(S[C@H]2CCC[C@H]2OCC(=O)O)cc(C(C)(C)C)c1` (single isomer, unassigned) [Example 84, (+)cis-2-[[2-[[3,5-bis(1,1-dimethylethyl)phenyl]thio]cyclopentyl]oxy]aceticacid], for which the IC50 at COX-I was over 100 µM; at cellular COX-II it was 0.42 µM; on COX-II, 3.7 µM.

As to `CC(C)(C)c1cc(S[C@H]2CCC[C@H]2OCC(=O)O)cc(C(C)(C)C)c1` (single isomer, unassigned) [Example 85, (-)cis-2-[[2-[[3,5-bis(1,1-dimethylethyl)phenyl]thio]cyclopentyl]oxy]aceticacid], the IC50 at cellular COX-II came out at 0.163 µM; at COX-II, 2.5 µM.

Consider `CC(C)(C)c1cc(S[C@@H]2CCCC[C@H]2OCC(=O)O)cc(C(C)(C)C)c1` (single isomer, unassigned) [Example 89, (-)trans-2-[[2-[[3,5-bis(1,1-dimethylethyl)phenyl]thio]cyclohexyl]oxy]acetic acid], for which the results for the IC50 on COX-I, against cellular COX-II and at COX-II were over 100 µM, 0.576 µM and 3.4 µM, respectively.

Take `CC(C)(C)c1ccc(S[C@@H]2CCC[C@H]2OCC(=O)O)c(C(C)(C)C)c1` (single isomer, unassigned) [Example 92, (+)trans-2-[[2-[[2,4-bis(1,1-dimethylethyl)phenyl]thio]cyclopentyl]oxy]acetic acid]: the IC50 on COX-I was over 100 µM; against cellular COX-II it was 0.246 µM; on COX-II it was 3.88 µM.

On to `CC(C)(C)c1ccc(S[C@@H]2CCC[C@H]2OCC(=O)O)c(C(C)(C)C)c1` (single isomer, unassigned) [Example 93, (-)trans-2-[[2-[[2,4-bis(1,1-dimethylethyl)phenyl]thio]cyclopentyl]oxy]acetic acid], for which the IC50 at COX-I was over 100 µM; on cellular COX-II it was 0.334 µM; on COX-II, 7.66 µM.

For `CC(C)(C)c1ccc(S[C@H]2CCC[C@H]2OCC(=O)O)c(C(C)(C)C)c1` (single isomer, unassigned) [Example 97, (-)cis-2-[[2-[[2,4-bis(1,1-dimethylethyl)phenyl]thio]cyclopentyl]oxy]aceticacid], the IC50 at COX-I was 92.1 µM; against cellular COX-II, 0.227 µM; on COX-II, 2 µM.
